Test results: patent publication US12419890B2, “Administration of sumo-activating enzyme inhibitor and checkpoint inhibitors” (Takeda Pharmaceutical Company Limited, priority 2019, dated 2025)

Molecular target: T1, SUMO-activating enzyme (Homo sapiens, UniProt Q9UBT2)
T1 sequence (Q9UBT2 1-640): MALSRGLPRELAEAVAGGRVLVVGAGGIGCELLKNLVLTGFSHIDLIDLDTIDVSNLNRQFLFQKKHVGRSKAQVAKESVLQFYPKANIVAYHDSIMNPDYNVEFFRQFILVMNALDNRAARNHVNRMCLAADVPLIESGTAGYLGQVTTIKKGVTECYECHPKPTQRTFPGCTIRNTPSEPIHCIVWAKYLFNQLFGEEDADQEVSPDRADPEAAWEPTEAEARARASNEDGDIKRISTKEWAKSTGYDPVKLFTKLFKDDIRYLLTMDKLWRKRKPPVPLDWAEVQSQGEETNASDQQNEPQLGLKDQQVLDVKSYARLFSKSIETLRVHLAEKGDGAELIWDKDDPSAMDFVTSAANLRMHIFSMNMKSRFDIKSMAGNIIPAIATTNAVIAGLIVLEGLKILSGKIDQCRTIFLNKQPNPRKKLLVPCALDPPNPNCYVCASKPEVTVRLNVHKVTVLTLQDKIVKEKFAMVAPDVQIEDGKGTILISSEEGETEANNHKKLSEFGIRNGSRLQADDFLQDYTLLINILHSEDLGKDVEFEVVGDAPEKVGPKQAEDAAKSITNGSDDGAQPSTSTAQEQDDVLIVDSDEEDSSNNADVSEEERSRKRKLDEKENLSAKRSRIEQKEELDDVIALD
T1 sequence (Q9UBE0 1-346 partner): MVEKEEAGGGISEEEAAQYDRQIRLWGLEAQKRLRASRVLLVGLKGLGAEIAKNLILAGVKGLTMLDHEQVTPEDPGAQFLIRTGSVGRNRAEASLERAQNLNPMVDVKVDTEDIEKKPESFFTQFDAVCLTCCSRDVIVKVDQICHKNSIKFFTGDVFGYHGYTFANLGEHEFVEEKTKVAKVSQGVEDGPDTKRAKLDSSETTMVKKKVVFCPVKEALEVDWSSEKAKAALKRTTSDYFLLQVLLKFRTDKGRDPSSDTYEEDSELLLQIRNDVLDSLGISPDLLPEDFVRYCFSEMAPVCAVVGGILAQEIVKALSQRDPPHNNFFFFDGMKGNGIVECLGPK
Assay: biochemical assays of SUMO-activating enzyme
Text: SAE inhibitors, as disclosed herein, are described, for example, in US 2016/0009744 and U.S. Pat. No. 9,695,154. They may be prepared by methods known to one skilled in the art and/or according to the methods described in US 2016/0009744 and U.S. Pat. No. 9,695,154, which is hereby incorporated by reference in its entirety. Central to the mechanism of action of useful SAE inhibitors, such as Compound I-263a, in combinations and methods of the present disclosure is production of type 1 IFNs and induction of an innate immune response with activation of dendritic cells, natural killer (NK) cells and macrophages.

- inhibition of SUMO-activating enzyme activity (mechanism-based inhibitor forming a covalent adduct with SUMO): potently inhibits enzyme activity
- selectivity for SUMO-activating enzyme (over ubiquitin-activating enzymes, Nedd8-activating enzyme, and autophagy related 7 enzyme): Strong selectivity
SMILES: Cc1sc(C(=O)c2cncnc2N[C@@H]2C[C@H](COS(N)(=O)=O)[C@@H](O)C2)cc1[C@@H]1NCCc2ccc(Cl)cc21 [Compound I-263a, [(1R,2S,4R)-4-{[5-({4-[(1R)-7-chloro-1,2,3,4-tetrahydroisoquinolin-1-yl]-5-methyl-2-thienyl}carbonyl)pyrimidin-4-yl]amino}-2-hydroxycyclopentyl]methyl sulfamate]
